The source of these data is patent publication US20250059165A1, “PIPERIDINYLPYRIDINYLCARBONITRILE DERIVATIVES AS INHIBITORS OF GLUTAMINYL-PEPTIDE CYCLOTRANSFERASE AND GLUTAMINYL-PEPTIDE CYCLOTRANSFERASE LIKE PROTEIN” (Boehringer Ingelheim International GmbH, priority 2023, published 2025).

Data set [1] has as its system SIRPα signalling induced by A549 cells. Kind of data set: Assay B: SIRPα signalling assay using A549 cells. The format is cell-based. The settings on record: Homo sapiens, 48 h compound incubation, Jurkat PathHunter SIRPαV1 reporter cells, read-out: Inhibition of SIRPα signalling induced by A549 cells: IC50. The procedure:
(§1) Two cell types are independently used: the Raji cell line (lymphoblast-like human cell line derived from B lymphocytes from a Burkitt's lymphoma patient in 1963) and A549 cells (adenocarcinomic human alveolar basal epithelial cells).
(§2) Test compounds were dissolved in 100% DMSO and serially diluted into a white 384-well microtiter cell culture plate (PerkinElmer #60076780 in case of Raji assay; PDL-coated plates Greiner #781945 in case of A549 assay). 5000 Raji cells (ATCC #CC86) or 5000 A549 cells (ATCC #CCL-185) in Assay Complete Cell Plating reagent 30 (DiscoverX 93-0563R30B) were added per well. The assay plate was incubated for 48 h at 37° C., 95% humidity and 5% CO2. 15000 reporter cells (Jurkat PathHunter SIRPαV1, DiscoverX #93-1135C19) were added to each well, and the plate was incubated for 5 h at 37° C., 95% humidity and 5% CO2. Bioassay reagent 1 of the PathHunter Bioassay detection kit (DiscoverX 93-0001) was added to each well of the plate using a multichannel pipette followed by a 15 min incubation at room temperature. Afterwards bioassay reagent 2 was added followed by […] incubation at room temperature (incubation in the dark). The analysis of the data was performed using the luminescence signal generated by beta-galactosidase in the PathHunter reporter cell line. The luminescence measurement was done using a Pherastar Multi-Mode Reader. Dose-response curves & IC50 data were calculated with 4-parameter sigmoidal dose response formula.

In data set [2] the target is T1, QPCTL (Homo sapiens, UniProt Q9NXS2).
T1 construct: made in house
T1 sequence (Q9NXS2 whole entry): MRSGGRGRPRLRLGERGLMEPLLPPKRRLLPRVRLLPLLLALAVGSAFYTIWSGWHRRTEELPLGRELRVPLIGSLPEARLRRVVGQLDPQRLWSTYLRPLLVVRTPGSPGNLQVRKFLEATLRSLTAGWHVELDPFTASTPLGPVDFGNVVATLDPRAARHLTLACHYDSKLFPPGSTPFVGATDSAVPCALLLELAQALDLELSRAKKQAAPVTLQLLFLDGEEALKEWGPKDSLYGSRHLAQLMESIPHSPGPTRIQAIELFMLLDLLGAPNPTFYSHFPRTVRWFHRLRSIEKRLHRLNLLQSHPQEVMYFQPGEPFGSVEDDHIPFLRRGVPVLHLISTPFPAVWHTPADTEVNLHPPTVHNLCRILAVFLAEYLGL
Kind of data set: Assay A: biochemical QPCTL activity assay (MALDI-TOF MS, CD47 peptide substrate). The settings on record: 0.5 nM enzyme, 10 μM CD47 peptide substrate; read-out: Inhibition of QPCTL: IC50. The procedure: (§3) QPCT or QPCTL dependent conversion of N-terminal glutamine to pyroglutamate of CD47 was monitored via MALDI-TOF MS. Test compounds were dissolved in 100% DMSO and serially diluted into clear 1,536-well microtiter plates. […] The plates were incubated for 10 min in a humidified incubator at 24° C. Subsequently, 2.5 μL of CD47 peptide substrate surrogate (^19[…]^33) was added to each well (final concentration: 10 μM for QPCTL/20 μM for QPCT). […] The plates were sealed with an adhesive foil, mixed for 30 s at 1,000 rpm and stored at room temperature until preparation of the MALDI target plates. MALDI target plates were prepared as described previously. […] QPCT or QPCTL activity was monitored by calculating the ratio between product and internal standard signals followed by normalization to high (100% activity) and low (0% activity) controls. Determination of compound potencies was obtained by fitting the dose-response data to a four-parameter logistical equation.

Data set [3] deals with T2, QPCT (Homo sapiens, UniProt Q16769).
T2 construct: purchased Origine (OriGene) TP700028
T2 sequence (Q16769 29-361): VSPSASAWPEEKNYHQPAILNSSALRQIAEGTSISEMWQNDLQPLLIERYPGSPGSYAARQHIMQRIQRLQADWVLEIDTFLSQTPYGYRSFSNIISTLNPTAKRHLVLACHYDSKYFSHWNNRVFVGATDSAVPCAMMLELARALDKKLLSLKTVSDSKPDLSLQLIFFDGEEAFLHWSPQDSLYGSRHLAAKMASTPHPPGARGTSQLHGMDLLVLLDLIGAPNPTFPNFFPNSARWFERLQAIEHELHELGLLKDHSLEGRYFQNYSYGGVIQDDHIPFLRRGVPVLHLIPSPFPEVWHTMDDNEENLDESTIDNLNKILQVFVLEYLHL
Kind of data set: Assay A: biochemical QPCT activity assay (MALDI-TOF MS, CD47 peptide substrate). The settings on record: 0.5 nM enzyme, 20 μM CD47 peptide substrate; read-out: Inhibition of QPCT: IC50. The procedure:
as §3

Data set [4] can be described thus: Assay C: permeability in CACO-2 cells. The settings on record: human, pH 7.2; for efflux ratio: Caco-2, Permeability B-A/Permeability A-B; for Papp A→B: Caco-2, apical to basolateral. The format is in vitro ADME. The procedure: Caco-2 cells (1−2×10^5 cells/1 cm^2 area) are seeded on filter inserts (Costar transwell polycarbonate or PET filters, 0.4 µm pore size) and cultured (DMEM) for 10 to 25 days. Compounds are dissolved in appropriate solvent (like DMSO, 1-20 mM stock solutions). […] The transport solution (TL) is applied to the apical or basolateral donor side for measuring A-B or B-A permeability (3 filter replicates), respectively. Samples are collected at the start and end of experiment from the donor and at various time intervals for up to 2 hours also from the receiver side for concentration measurement by HPLC-MS/MS or scintillation counting. Sampled receiver volumes are replaced with fresh receiver solution. Efflux Ratio (ER)=Permeability B-A/Permeability A-B
In general terms: Caco-2 cells form a polarised layer with tight junctions and transporters.

Data set [5] concerns SIRPα signalling induced by Raji cells. Kind of data set: Assay B: SIRPα signalling assay using Raji cells. The format is cell-based. The settings on record: Homo sapiens, 48 h compound incubation, Jurkat PathHunter SIRPαV1 reporter cells, read-out: Inhibition of SIRPα signalling induced by Raji cells: IC50. As to the method:
as §1, §2

Molecules are shown by their SMILES.

Broadly, the IC50 is the midpoint of a concentration-inhibition curve. As a reminder, the efflux ratio is the permeability from basolateral to apical divided by that in the opposite direction, in the common usage. As usually defined, the Papp A→B is the apparent permeability from the apical to the basolateral side of a cell layer. The low end stands for poor permeation, the high end for ready permeation. `Cn1cnnc1C1(F)CCN(c2c(C#N)ccnc2-c2cnc(F)c(N)c2)CC1` [Example 9]: the concentration for half-maximal inhibition (IC50) in data set [1] amounted to 39 nM; in data set [2], 2 nM; in data set [3] it was 4 nM; in data set [5], 103 nM. Further, the efflux ratio in data set [4] is 4.5. This compound also displayed an apparent permeability from apical to basolateral (Papp A→B) in data set [4] of 5.8 ×10⁻⁶ cm/s.

Take `Cn1cnnc1C1(F)CCN(c2c(C#N)cc(C(C)(C)O)nc2-c2ccc(F)nc2)CC1` [Example 1]: the 50% inhibitory concentration (IC50) in data set [1] worked out at 41 nM; in data set [2], 2 nM; in data set [3] it was 3 nM; in data set [5] it was 77 nM. For the same compound, the efflux ratio in data set [4] stood at 6.3. Besides, the Papp A→B in data set [4] is 8.7 ×10⁻⁶ cm/s.

For the compound `Cn1cnnc1C1(F)CCN(c2c(C#N)ccnc2-c2cnc3nnn(Cc4ccc(C(F)(F)F)nc4)c3c2)CC1` [Example 14], the IC50 in data set [1] stood at 202 nM; in data set [2], 3 nM; in data set [3], 11 nM; in data set [5], 673 nM. Besides, the efflux ratio in data set [4] is 32.8. The Papp A→B in data set [4] stood at 0.7 ×10⁻⁶ cm/s.

`COc1cnc(-c2ccc(F)nc2)c(N2CCC(F)(c3nncn3C)CC2)c1C#N` [Example 7]: the IC50 came out at 200 nM in data set [1], 8 nM in data set [2], 12 nM in data set [3] and 568 nM in data set [5]. Besides, the efflux ratio in data set [4] came to 5.5. In addition, in data set [4], the Papp A→B is 15 ×10⁻⁶ cm/s.

As for `Cn1cnnc1C1(F)CCN(c2c(C#N)ccnc2-c2cnn3nc(-c4cc(Cl)ccc4C#N)ccc23)CC1` [Example 18], the IC50 was found to be 16 nM in data set [1], 2 nM in data set [2], 1 nM in data set [3] and 44 nM in data set [5].

Take `Cn1cnnc1C1(F)CCN(c2c(C#N)cc(C(F)(F)F)nc2-c2cnc3nc(C(C)(C)C)oc3c2)CC1` [Example 16]: the 50% inhibitory concentration (IC50) worked out at 32 nM in data set [1] and 27 nM in data set [5]. The Papp A→B in data set [4] was 33 ×10⁻⁶ cm/s.

`Cn1cnnc1C1(F)CCN(c2c(C#N)ccnc2-c2cnn3nc(-c4cccc(Cl)c4)ccc23)CC1` [Example 28]: the IC50 in data set [1] amounted to 53 nM; in data set [5], 70 nM. For the same compound, in data set [4], the apical-to-basolateral permeability (Papp A→B) came to 28 ×10⁻⁶ cm/s.

As for `Cn1cnnc1C1(F)CCN(c2c(C#N)ccnc2-c2cnc3nc(-c4cccc(Cl)c4)ccn23)CC1` [Example 33], the IC50 in data set [1] is 30 nM; in data set [2] it was 1 nM; in data set [3], 2 nM; in data set [5] it was 53 nM. For the same compound, the efflux ratio in data set [4] was 6.2. Besides, the Papp A→B in data set [4] was found to be 13 ×10⁻⁶ cm/s.

Turning to `Cn1cnnc1C1(F)CCN(c2c(C#N)ccnc2-c2cnn3nc(-c4cccnc4Cl)ccc23)CC1` [Example 17], the IC50 in data set [1] amounted to 71 nM; in data set [2], 5 nM; in data set [3], 5 nM; in data set [5] it was 274 nM.

`COc1ccc(-c2ccc3c(-c4nccc(C#N)c4N4CCC(F)(c5nncn5C)CC4)cnn3n2)c(F)c1` [Example 23]: the half-inhibitory concentration (IC50) turned out to be 46 nM in data set [1], 4 nM in data set [2], 4 nM in data set [3] and 158 nM in data set [5].

For `COc1cc(C#N)c(N2CCC(F)(c3nncn3C)CC2)c(-c2ccc(F)nc2)n1` [Example 5], the IC50 in data set [1] was 60 nM; in data set [2] it was 4 nM; in data set [3] it was 9 nM; in data set [5], 617 nM. Also, the efflux ratio in data set [4] is 1.6. For the same compound, the Papp A→B in data set [4] is 27 ×10⁻⁶ cm/s.

In the case of `Cc1ccccc1-c1ccc2c(-c3nccc(C#N)c3N3CCC(F)(c4nncn4C)CC3)cnn2n1` [Example 19], the values for the concentration for half-maximal inhibition (IC50) in data set [1] and in data set [5] were 6 nM and 20 nM, respectively.

For `Cn1cnnc1C1(F)CCN(c2c(C#N)cc(C(F)(F)F)nc2-c2cnc3occc3c2)CC1` [Example 15], the IC50 in data set [1] was found to be 410 nM; in data set [2] it was 15 nM; in data set [3], 58 nM; in data set [5], 296 nM. In addition, the efflux ratio in data set [4] was found to be 1.6. In data set [4], this compound registered an apical-to-basolateral permeability (Papp A→B) of 47 ×10⁻⁶ cm/s.

For `Cc1ccc(-c2ccc3c(-c4nccc(C#N)c4N4CCC(F)(c5nncn5C)CC4)cnn3n2)c(C)c1` [Example 32], the IC50 in data set [1] turned out to be 21 nM; in data set [5], 72 nM. In data set [4], this compound displayed a Papp A→B of 60 ×10⁻⁶ cm/s.

`Cn1cnnc1C1(F)CCN(c2c(C#N)cc(C3CC3(F)F)nc2-c2ccc(F)nc2)CC1` (stereo not shown) [Example 3]: the half-inhibitory concentration (IC50) in data set [1] was found to be 40 nM; in data set [2], 1 nM; in data set [3], 4 nM; in data set [5], 131 nM. In addition, in data set [4], the efflux ratio turned out to be 1.3. This compound also came in with a Papp A→B in data set [4] of 47 ×10⁻⁶ cm/s.

Regarding `Cc1noc(C)c1-c1ccc2c(-c3nccc(C#N)c3N3CCC(F)(c4nncn4C)CC3)cnn2n1` [Example 24], the IC50 in data set [1] turned out to be 184 nM; in data set [2], 14 nM; in data set [3], 8 nM; in data set [5], 981 nM. The efflux ratio in data set [4] is 4.6. This compound yielded a Papp A→B in data set [4] of 16 ×10⁻⁶ cm/s.

As to `Cn1cnnc1C1(F)CCN(c2c(C#N)ccnc2-c2cnn3nc(-c4c(F)cccc4F)ccc23)CC1` [Example 21], the IC50 in data set [1] is 11 nM; in data set [2] it was 2 nM; in data set [3], 1 nM; in data set [5], 16 nM.

With `Cn1c(N)nnc1C1CCN(c2ncccc2-c2ccc(F)nc2)CC1` [Prior art Compound 6, reference compound], the IC50 in data set [1] stood at 12 nM; in data set [2], 1 nM; in data set [3] it was 1 nM; in data set [5], 8 nM. Moreover, in data set [4], the efflux ratio was determined as 65. In data set [4], this compound registered an apparent permeability from apical to basolateral (Papp A→B) of 0.2 ×10⁻⁶ cm/s.

For `CC(C)c1ccccc1-c1ccc2c(-c3nccc(C#N)c3N3CCC(F)(c4nncn4C)CC3)cnn2n1` [Example 30], the IC50 in data set [1] came to 17 nM; in data set [2], 2 nM; in data set [3] it was 1 nM; in data set [5] it was 87 nM. The efflux ratio in data set [4] is 0.7. Moreover, the Papp A→B in data set [4] came to 46 ×10⁻⁶ cm/s.

`Cn1cnnc1C1(F)CCN(c2c(C#N)ccnc2-c2cnn3nc(-c4ccccc4C#N)ccc23)CC1` [Example 22]: the concentration for half-maximal inhibition (IC50) in data set [1] was 51 nM; in data set [2], 2 nM; in data set [3], 2 nM; in data set [5], 117 nM.

As for `Cn1cnnc1C1(F)CCN(c2c(C#N)ccnc2-c2cnn3nc(-c4ccc(Cl)cc4)ccc23)CC1` [Example 27], the IC50 in data set [1] came out at 52 nM; in data set [2], 4 nM; in data set [3], 3 nM; in data set [5], 106 nM. Further, in data set [4], the efflux ratio was 2.2. The compound also returned a Papp A→B in data set [4] of 16 ×10⁻⁶ cm/s.

Take `Cn1cnnc1C1(F)CCN(c2c(C#N)cc(C(C)(C)O)nc2-c2cnc3nn(C(C)(C)C)c(Cl)c3c2)CC1` [Example 2]: the figures for the half-inhibitory concentration (IC50) in data set [1] and in data set [5] were 40 nM and 20 nM, respectively. The compound further yielded an apparent permeability from apical to basolateral (Papp A→B) in data set [4] of 4.5 ×10⁻⁶ cm/s.

As to `Cn1cnnc1C1(F)CCN(c2c(C#N)cc(C3CC3(F)F)nc2-c2cnc3nn(C(C)(C)C)cc3c2)CC1` (stereo not shown) [Example 4], the IC50 in data set [1] is 17 nM; in data set [5] it was 15 nM. This compound also showed an apical-to-basolateral permeability (Papp A→B) in data set [4] of 8.8 ×10⁻⁶ cm/s.

Regarding `Cn1cnnc1C1(F)CCN(c2c(C#N)ccnc2-c2cnn3nc(-c4ccc(Cl)cc4Cl)ccc23)CC1` [Example 20], the half-inhibitory concentration (IC50) in data set [1] was 29 nM; in data set [2], 2 nM; in data set [3] it was 3 nM; in data set [5], 83 nM.

For the compound `Cn1cnnc1C1CCN(c2ncccc2-c2ccc(F)nc2)CC1` [SEN177, reference compound], the half-maximal inhibitory concentration (IC50) is 214 nM in data set [1] and 1360 nM in data set [5].
